# Reference: US8883827B2, “Azole derivatives as WTN pathway inhibitors” (Oslo University Hospital HF, priority 2009, dated 2014)
# Tests used:
# [1] = tested on: canonical Wnt signaling activated by β-catenin constructs; assay: ST-Luc reporter in HEK293 cells co-transfected with β-catenin variants; conditions: 10 or 25 μM, 24 h
# Method: These included full-length β-catenin, β-catenin with point mutations at N-terminal phosphorylation sites (dominant active, da-Cat), N-terminal deletion of β-catenin (ΔN-Cat) as another dominant active form, and β-catenin C-terminal transactivation domain fused to LEF-1 (CLEF) functioning as dominant active LEF-1. Plasmid amounts used for transfections were diminished to nanograms per 48-well plate to obtain a pathway induction in the range of 10-20 fold.
# Transfection was performed as described in Example 22, but using β-catenin variants co-transfected in the following plasmid combinations:
# 1) 0.215 μg SuperTOPFlash+0.02 μg Renilla+0.015 μg β-catenin;
# 2) 0.23 μg SuperTOPFlash+0.02 μg Renilla+0.2 ng da-Cat (dominant active β-catenin (S33, 37, 41 and 45A mutated);
# 3) 0.23 μg SuperTOPFlash+0.02 μg Renilla+0.2 ng ΔN-Cat (N-terminal deleted β-catenin; and
# 4) 0.23 μg SuperTOPFlash+0.02 μg Renilla+0.2 ng CLEF (β-catenin transactivation domain fused to LEF-1).
# [2] = target: T1, DRAK1(h) (Homo sapiens, UniProt Q9UEE5); assay: Kinase screen; format: biochemical; conditions: 0.1% DMSO control = 100%
# T1 construct: purchased Millipore (KinaseProfiler service)
# [3] = tested on: SW480 cells; assay: Illumina microarray gene expression analysis; format: cell-based
# Method: A microarray analysis using an Illumina® array was performed in triplicate to investigate differential gene expression in cells treated with a Wnt pathway inhibitor. […] In vitro transcription reactions were incubated overnight (14 hr). Labeled cRNA was hybridized to Illumina® Human-6 v3 BeadChips (Illumina, San Diego, Calif.) at 58° C. overnight, according to the Illumina® Whole-Genome Gene Expression Protocol for BeadStation (Doc. #11226030.rev.C, Illumina Inc.). The hybridized BeadChip was stained with streptavidin-Cy3 (Amersham™, PA43001) for visualization and scanned with an Illumina® BeadArray Reader. The scanned images were imported into BeadStudio 3.1.3.0 (Illumina Inc) for extraction and quality control. A criterion of 0.5-fold change in expression was applied to the analysis. […] A list of differentially expressed genes of interest is given below in tables 1 and 2. […] Many known Wnt target genes (column 3) were influenced in treated cells. Some genes were influenced that are also affected in Ls174T colorectal cancer cells expressing an inducible dominant negative form of TCF-4 (column 4) (van de Wetering et al., Mol. Cell. Biol. (2008) 28(8), p. 2732-44). Other influenced genes that are important for cell cycle control and other genes correlated to regulated canonical Wnt signaling are also shown. The degree of modulation (column 5) is an indication of the degree of change between the non-treated and compound No. 1 treated samples.
# T1 sequence (Q9UEE5 whole entry): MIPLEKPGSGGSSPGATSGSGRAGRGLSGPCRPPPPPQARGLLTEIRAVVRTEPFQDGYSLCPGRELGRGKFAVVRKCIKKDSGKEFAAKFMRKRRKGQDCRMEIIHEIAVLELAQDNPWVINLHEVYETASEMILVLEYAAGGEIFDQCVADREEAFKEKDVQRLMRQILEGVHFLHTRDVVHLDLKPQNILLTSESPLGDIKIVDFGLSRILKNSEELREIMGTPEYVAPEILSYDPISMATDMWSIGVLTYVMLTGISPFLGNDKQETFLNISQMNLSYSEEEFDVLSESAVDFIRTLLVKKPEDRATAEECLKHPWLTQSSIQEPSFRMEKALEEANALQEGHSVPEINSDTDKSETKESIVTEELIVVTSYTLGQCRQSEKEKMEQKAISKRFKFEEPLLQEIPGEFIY
structure (smiles),measurement,setting,value
COc1ccc(-n2c(SCc3nc(-c4ccc(C)cc4)no3)nnc2-c2ccncc2)cc1 [Compound 1],activation of canonical Wnt signaling by full-length β-catenin,[1],reduced
same,activation of the pathway by CLEF,[1],not significantly antagonized
same,activation of the pathway by da-Cat,[1],not significantly antagonized
same,activation of the pathway by ΔN-Cat,[1],not significantly antagonized
same,activity at 10 µM,[2],116%
same,"Degree of modulation: CCAAT/enhancer binding protein (C/EBP), delta",[3]; x at 10 μM and 25 μM,− (moderate down-regulation (log^2 ratio of between −0.5 and −1.0))
same,Degree of modulation: Kruppel-like factor 4 (gut),[3]; x at 10 μM and 25 μM,+ (moderate up-regulation (log^2 ratio of between 0.5 and 1.0))
same,Degree of modulation: Kruppel-like factor 6,[3]; x at 10 μM and 25 μM,++ (strong up-regulation (log^2 ratio of between 1.0 and 1.5))
same,Degree of modulation: LY6/PLAUR domain containing 5,[3]; x at 10 μM and 25 μM,−−− (very strong down-regulation (log^2 ratio of between −1.5 and −2))
same,Degree of modulation: LY6/PLAUR domain containing 6B,[3]; x at 10 μM and 25 μM,++ (strong up-regulation (log^2 ratio of between 1.0 and 1.5))
same,Degree of modulation: SPANXA1,[3]; x at 10 μM and 25 μM,−−− (very strong down-regulation (log^2 ratio of between −1.5 and −2))
same,Degree of modulation: SPANXB2,[3]; x at 10 μM and 25 μM,−−− (very strong down-regulation (log^2 ratio of between −1.5 and −2))
same,Degree of modulation: SPANXC,[3]; x at 10 μM and 25 μM,−−− (very strong down-regulation (log^2 ratio of between −1.5 and −2))
same,Degree of modulation: SPANXE,[3]; x at 10 μM and 25 μM,−−− (very strong down-regulation (log^2 ratio of between −1.5 and −2))
same,Degree of modulation: SRY (sex determining region Y)-box 18,[3]; x at 10 μM and 25 μM,− (moderate down-regulation (log^2 ratio of between −0.5 and −1.0))
same,Degree of modulation: TEA domain family member 4,[3]; x at 10 μM and 25 μM,− (moderate down-regulation (log^2 ratio of between −0.5 and −1.0))
same,Degree of modulation: WNT1 inducible signaling pathway protein 3,[3]; x at 10 μM and 25 μM,+ (moderate up-regulation (log^2 ratio of between 0.5 and 1.0))
same,"Degree of modulation: alkaline phosphatase, liver/bone/kidney",[3]; x at 10 μM and 25 μM,− (moderate down-regulation (log^2 ratio of between −0.5 and −1.0))
same,Degree of modulation: axin 2,[3]; x at 10 μM and 25 μM,− (moderate down-regulation (log^2 ratio of between −0.5 and −1.0))
same,Degree of modulation: dickkopf homolog 1 (Xenopus laevis),[3]; x at 10 μM and 25 μM,−− (strong down-regulation (log^2 ratio of between −1.0 and −1.5))
same,Degree of modulation: frizzled homolog 4 (Drosophila),[3]; x at 10 μM and 25 μM,− (moderate down-regulation (log^2 ratio of between −0.5 and −1.0))
same,Degree of modulation: homeobox B2,[3]; x at 10 μM and 25 μM,− (moderate down-regulation (log^2 ratio of between −0.5 and −1.0))
same,Degree of modulation: homeobox B5,[3]; x at 10 μM and 25 μM,− (moderate down-regulation (log^2 ratio of between −0.5 and −1.0))
same,Degree of modulation: homeobox B7,[3]; x at 10 μM and 25 μM,− (moderate down-regulation (log^2 ratio of between −0.5 and −1.0))
same,"Degree of modulation: inhibitor of DNA binding 2, dominant negative helix-loop-helix protein",[3]; x at 10 μM and 25 μM,−− (strong down-regulation (log^2 ratio of between −1.0 and −1.5))
same,Degree of modulation: mitogen-activated protein kinase kinase 3,[3]; x at 10 μM and 25 μM,+ (moderate up-regulation (log^2 ratio of between 0.5 and 1.0))
same,Degree of modulation: naked cuticle homolog 1 (Drosophila),[3]; x at 10 μM and 25 μM,− (moderate down-regulation (log^2 ratio of between −0.5 and −1.0))
same,Degree of modulation: peroxisome proliferator-activated receptor gamma,[3]; x at 10 μM and 25 μM,++ (strong up-regulation (log^2 ratio of between 1.0 and 1.5))
same,Degree of modulation: prickle homolog 2 (Drosophila),[3]; x at 10 μM and 25 μM,− (moderate down-regulation (log^2 ratio of between −0.5 and −1.0))
same,"Degree of modulation: FYN oncogene related to SRC, FGR, YES",[3]; x at 10 μM only,+ (moderate up-regulation (log^2 ratio of between 0.5 and 1.0))
same,Degree of modulation: T-cell lymphoma invasion and metastasis 1,[3]; x at 10 μM only,+ (moderate up-regulation (log^2 ratio of between 0.5 and 1.0))
same,"Degree of modulation: catenin (cadherin-associated protein), alpha-like 1",[3]; x at 10 μM only,− (moderate down-regulation (log^2 ratio of between −0.5 and −1.0))
same,Degree of modulation: gastrin,[3]; x at 10 μM only,− (moderate down-regulation (log^2 ratio of between −0.5 and −1.0))
same,Degree of modulation: low density lipoprotein receptor-related protein 5,[3]; x at 10 μM only,+ (moderate up-regulation (log^2 ratio of between 0.5 and 1.0))
same,Degree of modulation: mitogen-activated protein kinase kinase kinase 1,[3]; x at 10 μM only,+ (moderate up-regulation (log^2 ratio of between 0.5 and 1.0))
same,Degree of modulation: notum pectinacetylesterase homolog (Drosophila),[3]; x at 10 μM only,++ (strong up-regulation (log^2 ratio of between 1.0 and 1.5))
same,Degree of modulation: secreted frizzled-related protein 5,[3]; x at 10 μM only,+ (moderate up-regulation (log^2 ratio of between 0.5 and 1.0))
same,Degree of modulation: slowmo homolog 1 (Drosophila),[3]; x at 10 μM only,− (moderate down-regulation (log^2 ratio of between −0.5 and −1.0))
same,Degree of modulation: transmembrane 4 L six family member 5,[3]; x at 10 μM only,++ (strong up-regulation (log^2 ratio of between 1.0 and 1.5))
same,Degree of modulation: A kinase (PRKA) anchor protein 1,[3]; x at 25 μM only,+ (moderate up-regulation (log^2 ratio of between 0.5 and 1.0))
same,Degree of modulation: CD44 molecule (Indian blood group),[3]; x at 25 μM only,+ (moderate up-regulation (log^2 ratio of between 0.5 and 1.0))
same,Degree of modulation: FOS-like antigen 1,[3]; x at 25 μM only,+ (moderate up-regulation (log^2 ratio of between 0.5 and 1.0))
same,Degree of modulation: PDZ and LIM domain 1,[3]; x at 25 μM only,− (moderate down-regulation (log^2 ratio of between −0.5 and −1.0))
same,Degree of modulation: Sp5 transcription factor,[3]; x at 25 μM only,− (moderate down-regulation (log^2 ratio of between −0.5 and −1.0))
same,Degree of modulation: adenomatosis polyposis coli down-regulated 1,[3]; x at 25 μM only,−− (strong down-regulation (log^2 ratio of between −1.0 and −1.5))
same,Degree of modulation: baculoviral IAP repeat-containing 5,[3]; x at 25 μM only,− (moderate down-regulation (log^2 ratio of between −0.5 and −1.0))
same,Degree of modulation: bone morphogenetic protein 1,[3]; x at 25 μM only,+ (moderate up-regulation (log^2 ratio of between 0.5 and 1.0))
